{
  "source": "patent US8916702B2",
  "about": "(priority 2012, dated 2014)",
  "data": [
    {"system": "HCV pseudoparticles (genotype 1a HCV E1 and E2 envelope, H77C isolate)", "experiment": "microbe, parasite or virus in culture", "type": "cell-based", "conditions": "Hepatitis C virus, Huh-7, 48 h, HCV pseudoparticle infection of Huh7 cells, luciferase 2 days after infection; average of duplicates", "units": {"EC50": "pM"}, "values": [
      {"smiles": "CC(C)(CNC(=O)C(=O)Nc1ccccc1)CNC(=O)c1ccc(Nc2nc(NC3(c4ccc(Cl)cc4)CC3)nc(OCC(F)(F)F)n2)cc1", "note": "[Compound 1035, N1-(3-(4-(4-(1-(4-chlorophenyl)cyclopropylamino)-6-(2,2,2-trifluoroethoxy)-1,3,5-triazin-2-ylamino)benzamido)-2,2-dimethylpropyl)-N2-phenyloxalamide]", "EC50": 30}
    ]},
    {"system": "HCV pseudoparticles (genotype 1a HCV E1 and E2 envelope, H77C isolate)", "experiment": "microbe, parasite or virus in culture", "type": "cell-based", "conditions": "Hepatitis C virus, Huh-7, 48 h, HCV pseudoparticles (genotype 1a, H77C) in Huh7 cells; average of duplicate; luciferase 2 days after infection", "units": {"EC50": "pM"}, "values": [
      {"smiles": "COC(=O)[C@H](CNC(=O)C(=O)Nc1ccc(-c2cc[nH]n2)cc1)NC(=O)c1ccc(Nc2nc(NC3(c4ccc(Cl)cc4)CC3)nc(OCC(F)(F)F)n2)cc1", "note": "[Compound 3193]", "EC50": 1030}
    ]},
    {"system": "HCV pseudoparticles (genotype 1a HCV E1 and E2 envelope, H77C isolate)", "experiment": "microbe, parasite or virus in culture", "type": "cell-based", "conditions": "Hepatitis C virus, Huh-7, 48 h, HCV pseudoparticles, Huh7 cells, luciferase 2 days after infection; average of duplicates", "units": {"EC50": "pM"}, "values": [
      {"smiles": "CC(F)Oc1cccc(NC(=O)C(=O)NCC[C@H](NC(=O)c2ccc(Nc3nc(NC4(c5ccc(Cl)cc5)CC4)nc(OCC(F)(F)F)n3)cc2)C(=O)O)c1", "note": "(some centres unmarked) [Compound 3633]", "EC50": 58}
    ]},
    {"system": "HCV pseudoparticles (genotype 1a HCV E1 and E2 envelope, H77C isolate)", "experiment": "microbe, parasite or virus in culture", "type": "cell-based", "conditions": "Hepatitis C virus, Huh-7, 48 h, read-out: Activity (EC50 class), HCV pseudoparticle infection of Huh7 cells, luciferase 2 days after infection; EC50 expressed as class A/B", "units": {"EC50": "pM"}, "values": [
      {"smiles": "Cc1ccc(NC(=O)C(=O)NCC2(CNC(=O)c3ccc(Nc4nc(NC5(c6ccc(Cl)cc6)CC5)nc(OCC(F)(F)F)n4)cc3)CC2)cc1", "note": "[Compound 1600]", "EC50": "10 to 10000"},
      {"smiles": "COC(=O)[C@H](CCNC(=O)C(=O)NCC1(C(=O)OC)CC1)NC(=O)c1ccc(Nc2nc(NC3(c4ccc(Cl)cc4)CC3)nc(OCC(F)(F)F)n2)cc1", "note": "[Compound 1375]", "EC50": "10 to 10000"},
      {"smiles": "CC(C)(C)CNC(=O)C(=O)NCC[C@H](NC(=O)c1ccc(Nc2nc(NC3(c4ccc(Cl)cc4)CC3)nc(OCC(F)(F)F)n2)cc1)C(=O)O", "note": "[Compound 1205]", "EC50": "10 to 10000"},
      {"smiles": "COC(=O)[C@H](CCNC(=O)C(=O)NCCc1c[nH]cn1)NC(=O)c1ccc(Nc2nc(NC3(c4ccc(Cl)cc4)CC3)nc(OCC(F)(F)F)n2)cc1", "note": "[Compound 1318]", "EC50": "10 to 10000"},
      {"smiles": "CC(C)(CNC(=O)C(=O)Nc1cccc(F)c1)CNC(=O)c1ccc(Nc2nc(NC3(c4ccc(Cl)cc4)CC3)nc(OCC(F)(F)F)n2)cc1", "note": "[Compound 1546]", "EC50": "10 to 10000"},
      {"smiles": "COc1ccc(NC(=O)C(=O)NCC[C@H](NC(=O)c2ccc(Nc3nc(NC4(c5ccc(Cl)cc5)CC4)nc(OCC(F)(F)F)n3)cc2)C(=O)O)cc1", "note": "[Compound 1274]", "EC50": "10 to 10000"},
      {"smiles": "CCC(CC)CNC(=O)C(=O)NCC[C@H](NC(=O)c1ccc(Nc2nc(NC3(c4ccc(Cl)cc4)CC3)nc(OCC(F)(F)F)n2)cc1)C(=O)OC", "note": "[Compound 1202]", "EC50": "10 to 10000"},
      {"smiles": "COc1ccc(NC(=O)C(=O)NCC[C@H](NC(=O)c2ccc(Nc3nc(NC4(c5ccc(Cl)cc5)CC4)nc(OCC(F)(F)F)n3)cc2)C(=O)O)cn1", "note": "[Compound 1262]", "EC50": "10 to 10000"},
      {"smiles": "O=C(NCC[C@H](NC(=O)c1ccc(Nc2nc(NC3(c4ccc(Cl)cc4)CC3)nc(OCC(F)(F)F)n2)cc1)C(=O)O)C(=O)NC(CCO)C1CC1", "note": "(some centres unmarked) [Compound 1439]", "EC50": "10 to 10000"},
      {"smiles": "COC(=O)[C@H](CCNC(=O)C(=O)NCC1CCCN(C(=O)OC(C)(C)C)C1)NC(=O)c1ccc(Nc2nc(NC3(c4ccc(Cl)cc4)CC3)nc(OCC(F)(F)F)n2)cc1", "note": "(some centres unmarked) [Compound 1200]", "EC50": "10 to 10000"},
      {"smiles": "COC(=O)[C@H](CNC(=O)C(=O)NC1(Cc2ccccc2)CC1)NC(=O)c1ccc(Nc2nc(NC3(c4ccc(Cl)cc4)CC3)nc(OCC(F)(F)F)n2)cc1", "note": "[Compound 1304]", "EC50": "10 to 10000"},
      {"smiles": "CC1CCC(NC(=O)C(=O)NCC[C@H](NC(=O)c2ccc(Nc3nc(NC4(c5ccc(Cl)cc5)CC4)nc(OCC(F)(F)F)n3)cc2)C(=O)O)CC1", "note": "(some centres unmarked) [Compound 1129]", "EC50": "10 to 10000"}
    ]},
    {"system": "HCV pseudoparticles (genotype 1a HCV E1 and E2 envelope, H77C isolate)", "experiment": "microbe, parasite or virus in culture", "type": "cell-based", "conditions": "Hepatitis C virus, Huh-7, 48 h, read-out: Activity (EC50 class), HCV pseudoparticles, Huh7 cells, luciferase 2 days after infection; average of duplicates", "units": {"EC50": "pM"}, "values": [
      {"smiles": "COC(=O)[C@H](CCNC(=O)C(=O)Nc1cccc(-c2noc(C)n2)c1)NC(=O)c1ccc(Nc2nc(NC3(c4ccc(Cl)cc4)CC3)nc(OCC(F)(F)F)n2)cc1", "note": "[Compound 3606]", "EC50": "10 to 10000"},
      {"smiles": "O=C(NC[C@H](NC(=O)c1ccc(Nc2nc(NC3(c4ccc(Cl)cc4)CC3)nc(OCC(F)(F)F)n2)cc1)C(=O)Cl)C(=O)Nc1cccc(Cl)c1", "note": "[Compound 3741]", "EC50": "10 to 10000"},
      {"smiles": "O=C(NCC[C@H](NC(=O)c1ccc(Nc2nc(NC3(c4ccc(Cl)cc4)CC3)nc(OCC(F)(F)F)n2)cc1)C(=O)O)C(=O)Nc1ccc(O)nc1", "note": "[Compound 3646]", "EC50": "10 to 10000"},
      {"smiles": "CC(F)Oc1cccc(NC(=O)C(=O)NCC[C@H](NC(=O)c2ccc(Nc3nc(NC4(c5ccc(Cl)cc5)CC4)nc(OCC(F)(F)F)n3)cc2)C(=O)O)c1", "note": "(some centres unmarked) [Compound 3633]", "EC50": "10 to 10000"},
      {"smiles": "Cc1csc(-c2cccc(NC(=O)C(=O)NC[C@H](NC(=O)c3ccc(Nc4nc(NC5(c6ccc(Cl)cc6)CC5)nc(OCC(F)(F)F)n4)cc3)C(=O)Cl)c2)n1", "note": "[Compound 3780]", "EC50": "10 to 10000"},
      {"smiles": "COC(=O)[C@H](CCNC(=O)C(=O)Nc1cccc(CCC(N)O)c1)NC(=O)c1ccc(Nc2nc(NC3(c4ccc(Cl)cc4)CC3)nc(OCC(F)(F)F)n2)cc1", "note": "(some centres unmarked) [Compound 3609]", "EC50": "10 to 10000"},
      {"smiles": "CC(C)(CNC(=O)C(=O)Nc1ccc(Oc2ccccc2)cc1)CNC(=O)c1ccc(Nc2nc(NC3(c4ccc(Cl)cc4)CC3)nc(OCC(F)(F)F)n2)cc1", "note": "[Compound 3672]", "EC50": "10 to 10000"},
      {"smiles": "CC(C)(CNC(=O)C(=O)Nc1ccc(-c2cccc(F)c2)cc1)CNC(=O)c1ccc(Nc2nc(NC3(c4ccc(Cl)cc4)CC3)nc(OCC(F)(F)F)n2)cc1", "note": "[Compound 3797]", "EC50": "10 to 10000"}
    ]},
    {"system": "HCV pseudoparticles (genotype 1a HCV E1 and E2 envelope, H77C isolate)", "experiment": "microbe, parasite or virus in culture", "type": "cell-based", "conditions": "Hepatitis C virus, Huh-7, read-out: Activity (EC50 class), HCV pseudoparticles (genotype 1a, H77C) in Huh7 cells; EC50 expressed as class A/B", "units": {"EC50": "pM"}, "values": [
      {"smiles": "NC(=O)C(=O)NCCCNC(=O)c1ccc(Nc2nc(NC3(c4ccc(Cl)cc4)CC3)nc(OCC(F)(F)F)n2)cc1", "note": "[Compound 3342]", "EC50": "10 to 10000"},
      {"smiles": "COC(=O)[C@H](CCNC(=O)C(=O)Nc1ccc(C2CCCCC2)cc1)NC(=O)c1ccc(Nc2nc(NC3(c4ccc(Cl)cc4)CC3)nc(OCC(F)(F)F)n2)cc1", "note": "[Compound 3111]", "EC50": "10 to 10000"},
      {"smiles": "CC(C)(CNC(=O)C(=O)Nc1ccc2ccccc2c1)CNC(=O)c1ccc(Nc2nc(NC3(c4ccc(Cl)cc4)CC3)nc(OCC(F)(F)F)n2)cc1", "note": "[Compound 3347]", "EC50": "10 to 10000"},
      {"smiles": "N#Cc1ccc(NC(=O)C(=O)NC/C(=N/C(=O)c2ccc(Nc3nc(NC4(c5ccc(Cl)cc5)CC4)nc(OCC(F)(F)F)n3)cc2)C(=O)O)cc1", "note": "[Compound 3167]", "EC50": "10 to 10000"},
      {"smiles": "COC(=O)[C@H](CNC(=O)C(=O)Nc1ccc(C(C)(C)C)cc1)NC(=O)c1ccc(Nc2nc(NC3(c4ccc(Cl)cc4)CC3)nc(OCC(F)(F)F)n2)cc1", "note": "[Compound 3211]", "EC50": "10 to 10000"},
      {"smiles": "COC(=O)/C(CCNC(=O)C(=O)Nc1ccc(N2CCOCC2)nc1)=N\\C(=O)c1ccc(Nc2nc(NC3(c4ccc(Cl)cc4)CC3)nc(OCC(F)(F)F)n2)cc1", "note": "[Compound 3585]", "EC50": "10 to 10000"},
      {"smiles": "COC(=O)/C(CCNC(=O)C(=O)Nc1cccc(C(C)(C)C)c1)=N\\C(=O)c1ccc(Nc2nc(NC3(c4ccc(Cl)cc4)CC3)nc(OCC(F)(F)F)n2)cc1", "note": "[Compound 3586]", "EC50": "10 to 10000"},
      {"smiles": "CC(C)(CNC(=O)C(=O)Nc1ccccc1N1CCCCC1)CNC(=O)c1ccc(Nc2nc(NC3(c4ccc(Cl)cc4)CC3)nc(OCC(F)(F)F)n2)cc1", "note": "[Compound 3016]", "EC50": "10 to 10000"},
      {"smiles": "CC(C)(CNC(=O)C(=O)NCc1ccccc1F)CNC(=O)c1ccc(Nc2nc(NC3(c4ccc(Cl)cc4)CC3)nc(OCC(F)(F)F)n2)cc1", "note": "[Compound 3005]", "EC50": "10 to 10000"},
      {"smiles": "O=C(Nc1ccc(F)cc1F)C(=O)N1CCCC(CNC(=O)c2ccc(Nc3nc(NC4(c5ccc(Cl)cc5)CC4)nc(OCC(F)(F)F)n3)cc2)C1", "note": "(centres unmarked) [Compound 3484]", "EC50": "10 to 10000"},
      {"smiles": "CC(C)(CNC(=O)C(=O)Nc1ccc2cn[nH]c2c1)CNC(=O)c1ccc(Nc2nc(NC3(c4ccc(Cl)cc4)CC3)nc(OCC(F)(F)F)n2)cc1", "note": "[Compound 3022]", "EC50": "10 to 10000"},
      {"smiles": "COC(=O)[C@H](CNC(=O)C(=O)Nc1ccc(-c2cc[nH]n2)cc1)NC(=O)c1ccc(Nc2nc(NC3(c4ccc(Cl)cc4)CC3)nc(OCC(F)(F)F)n2)cc1", "note": "[Compound 3193]", "EC50": "10 to 10000"},
      {"smiles": "COc1ccc(-c2ccccc2)c(NC(=O)C(=O)NCC(C)(C)CNC(=O)c2ccc(Nc3nc(NC4(c5ccc(Cl)cc5)CC4)nc(OCC(F)(F)F)n3)cc2)c1", "note": "[Compound 3014]", "EC50": "10 to 10000"},
      {"smiles": "COC(=O)[C@H](CCNC(=O)C(=O)Nc1ccc(-c2nncn2C)cc1)NC(=O)c1ccc(Nc2nc(NC3(c4ccc(Cl)cc4)CC3)nc(OCC(F)(F)F)n2)cc1", "note": "[Compound 3317]", "EC50": "10 to 10000"},
      {"smiles": "CC(C)(CNC(=O)C(=O)Nc1ccc2c(c1)CCC2=O)CNC(=O)c1ccc(Nc2nc(NC3(c4ccc(Cl)cc4)CC3)nc(OCC(F)(F)F)n2)cc1", "note": "[Compound 3355]", "EC50": "10 to 10000"}
    ]}
  ]
}
